Patent US20240315986A1, “PHARMACEUTICAL COMPOSITION FOR TREATMENT OF MULTIPLE SYSTEM ATROPHY” (THE UNIVERSITY OF TOKYO, priority 2021, published 2024)
Where two headings read alike, the source gives them in different places.

Tests used:
[1] = Phase 1 clinical trial: plasma concentration of drug in repeated oral administration for 14 days; type: in vivo, human; details: for Maximum plasma concentration of the MSA-01: 6 hours after repeated oral administration for 14 days (318 hour)
Method: (Measurement of Plasma Concentration of Drug in Repeated Oral Administration for 14 Days)
The MSA-01 was subjected to the oral administration to healthy subjects at doses of 900 mg, 1,200 mg, and 1,500 mg repeatedly for 14 days. […] Maximum plasma concentrations of the MSA-01 detected were 10.24, 9.38, and 15.22 μg/mL in 900 mg, 1,200 mg, and 1,500 mg groups, respectively, in measurement after 6 hours from the repeated oral administration for 14 days (a value at 318 hour in FIG. 1). Published baselines of the plasma concentration of the ubiquinol are 0.87 and […] (% Reduced CoQ10: 98.9 and 85%) (Langsjoen, et al. Comparison study of plasma coenzyme Q10 levels in healthy subjects supplemented with ubiquinol versus ubiquinone. Clin Pharmacol Drug Dev. 2014; 3(1):13-17, Onur et al. Determination of the coenzyme Q10 status in a large Caucasian study population. Biofactors 2015; 41(4):211-21), and it is estimated that MSA-01 in the plasma increased about 20-fold from the baselines in the 1500 mg group in the test.

[2] = system: multiple system atrophy patients; assay: Phase 2 clinical trial of MSA-01 in multiple system atrophy patients; type: in vivo, human
Method: For a group of 21 patients with COQ2 mutation and a group of 108 patients without COQ2 mutation, 61 patients were administered with the MSA-01 and 68 patients were administered with the placebo for each group. Among 129 patients in total in the patient groups, 99 patients had the MSA-C and 30 patients had the MSA-P. The 129 patients who were confirmed to be eligible during 4-week observation period were randomly assigned to be administered with the MSA-01 or the placebo once per day after breakfast (doses of the MSA-01 or the placebo ascend every 2 weeks to 300, 600, 900, 1,200, and 1,500 mg/day, FIG. 2), and evaluation items according to main evaluation items were measured at Weeks 12, 24, 36, and 48.
Changes (LS means) of UMSARS part 2 scores at Weeks 12, 24, 36, and 48 from the baseline (unified multiple-system atrophy rating scale part 2; Wenning G K, Tison F, Seppi K, et al. Development and validation of the Unified Multiple System Atrophy Rating Scale (UMSARS). Mov Disord [Internet] 2004; 19(12):1391-402) were evaluated. […] Results are shown in FIG. 3A (at Weeks 12, 24, 36, and 48) and FIG. 4 (at Week 48).
Changes (LS mean) of a UMSARS part 1 score (unified multiple-system atrophy rating scale part 1; Wenning G K, Tison F, Seppi K, et al. Development and validation of the Unified Multiple System Atrophy Rating Scale (UMSARS). Mov Disord [Internet] 2004; 19(12):1391-402), the Barthel index (Barthel index: Mahoney F I, Barthel D W. Functional evaluation: The Barthel index. Md State Med J [Internet] 1965; 14:61-5. Available from:http://www.ncbi.nlm.nih.gov/pubmed/14258950) (FIG. 3B), a SARA score (Schmitz-Huebsch T, du Montcel S T, Baliko L, Berciano J, Boesch S, Depondt C, Giunti P, Globas C, Infante J, Kang J S, Kremer B, Mariotti C, Melegh B, Pandolfo M, Rakowicz M, Ribai P, Rola R, Schoels L, Szymanski S, van de Warrenburg B P, Duerr A, Klockgether T, Fancellu R. Scale for the assessment and rating of ataxia:development of a new clinical scale. Neurology. 2006 Jun. 13; 66(11):1717-20. doi: 10.1212/01.wnl.0000219042.60538.92), and a 10-meter walking time (second) at Week 48 from baselines was evaluated (FIG. 4).

[3] = cited from earlier work
familial MSA patient = details: cited from earlier work
[4] = intravenous administration to a rat; cited from earlier work
[5] = oral administration to a human; cited from earlier work
[6] = Week 48, compared to the placebo group
[7] = first cited value (Langsjoen et al. 2014)
[8] = second cited value (Onur et al. 2015)

Row | SMILES | Maximum plasma concentration of the MSA-01 ([1]; 900 mg group) | Maximum plasma concentration of the MSA-01 ([1]; 1,200 mg group) | increase of MSA-01 in the plasma from the baselines ([1]; 1500 mg group, versus published baselines) | Maximum plasma concentration of the MSA-01 ([1]; 1,500 mg group) | plasma concentration of the MSA-01 until 24 hours after the administration ([1]; healthy subjects, oral 900, 1,200 and 1,500 mg, quantification limit printed 1 g/mL) | time of repeated administration to reach steady state of plasma concentration ([1]; healthy subjects, repeated oral administration 900-1,500 mg) | Change (LS mean) of 10-meter walking time from baseline [2, 6] | Change (LS mean) of SARA score from baseline [2, 6] | Change (LS mean) of the Barthel index from baseline [2, 6] | difference of LS mean change of UMSARS part 2 score, MSA-01 group versus placebo group ([2]; Week 48, 95% confidence interval −3.24 to −0.24, P=0.023) | Change (LS mean) of UMSARS part 2 score from the baseline ([2]; Week 48, MSA-01 ascending to 1,500 mg/day oral once per day, placebo 7.14) | % Reduced CoQ10 [3, 7] | Published baseline of the plasma concentration of the ubiquinol [3, 7] | % Reduced CoQ10 [3, 8] | Published baseline of the plasma concentration of the ubiquinol [3, 8] | clinical evaluation scale (familial MSA patient; 600 mg 2 weeks, 840 mg 2 weeks, 1,200 mg 2 weeks, once per day from a gastrostomy tube) | brain oxygen consumption rate (familial MSA patient; one familial MSA patient, ubiquinol above conventional dose) | ubiquinol (reduced) present in plasma after ubiquinone administration [4] | ubiquinol (reduced) present in plasma after ubiquinone administration [5]
1 | COC1=C(OC)C(O)C(C/C=C(\C)CC/C=C(\C)CC/C=C(\C)CC/C=C(\C)CC/C=C(\C)CC/C=C(\C)CC/C=C(\C)CC/C=C(\C)CC/C=C(\C)CCC=C(C)C)=C(C)C1O (stereo not shown) [MSA-01, 2-[(2E,6E,10E,14E,18E,22E,26E,30E,34E)-3,7,11,15,19,23,27,31,35,39-decamethyltetraconta-2,6,10,14,18,22,26,30,34,38-decaenyl]-5,6-dimethoxy-3-methylcyclohexa-2,5-diene-1,4-diol] | 10.24 µg/mL | 9.38 µg/mL | about 20 fold | 15.22 µg/mL | extremely low | about 7 days | effects were shown | effects were shown | effects were shown | −1.74 | 5.40 | 98.9% | 0.87 µg/mL | 85% | 0.66 µg/mL | no statistically significant changes | improved brain oxygen consumption rate | – | –
2 | COC1=C(OC)C(=O)C(C/C=C(\C)CC/C=C(\C)CC/C=C(\C)CC/C=C(\C)CC/C=C(\C)CC/C=C(\C)CC/C=C(\C)CC/C=C(\C)CC/C=C(\C)CCC=C(C)C)=C(C)C1=O [ubiquinone] | – | – | – | – | – | – | – | – | – | – | – | – | – | – | – | – | – | ≥ 95% | ≥ 95%
